According to patent US20240018123A1, “COMPOUND FOR INHIBITING OR DISINTEGRATING ANDROGEN RECEPTOR, AND PHARMACEUTICAL USE THEREOF” (KOREA RESEARCH INSTITUTE OF CHEMICAL TECHNOLOGY, priority 2020, published 2024):

Columns and labels:
[1] = target: T1, Androgen receptor (AR) (Homo sapiens, UniProt P10275, T878A); test: Assessment of AR proteolytic activity (Western blotting of LNCap cell lysates); format: cell-based; settings: 24 hours of treatment, Western blotting quantified with Image J
T1 construct: 5.5×10^5 LNCap cells were injected into each well of a 6-well plate; endogenous in cells; host or cells: LNCaP
T1 sequence (P10275 1-920 T878A): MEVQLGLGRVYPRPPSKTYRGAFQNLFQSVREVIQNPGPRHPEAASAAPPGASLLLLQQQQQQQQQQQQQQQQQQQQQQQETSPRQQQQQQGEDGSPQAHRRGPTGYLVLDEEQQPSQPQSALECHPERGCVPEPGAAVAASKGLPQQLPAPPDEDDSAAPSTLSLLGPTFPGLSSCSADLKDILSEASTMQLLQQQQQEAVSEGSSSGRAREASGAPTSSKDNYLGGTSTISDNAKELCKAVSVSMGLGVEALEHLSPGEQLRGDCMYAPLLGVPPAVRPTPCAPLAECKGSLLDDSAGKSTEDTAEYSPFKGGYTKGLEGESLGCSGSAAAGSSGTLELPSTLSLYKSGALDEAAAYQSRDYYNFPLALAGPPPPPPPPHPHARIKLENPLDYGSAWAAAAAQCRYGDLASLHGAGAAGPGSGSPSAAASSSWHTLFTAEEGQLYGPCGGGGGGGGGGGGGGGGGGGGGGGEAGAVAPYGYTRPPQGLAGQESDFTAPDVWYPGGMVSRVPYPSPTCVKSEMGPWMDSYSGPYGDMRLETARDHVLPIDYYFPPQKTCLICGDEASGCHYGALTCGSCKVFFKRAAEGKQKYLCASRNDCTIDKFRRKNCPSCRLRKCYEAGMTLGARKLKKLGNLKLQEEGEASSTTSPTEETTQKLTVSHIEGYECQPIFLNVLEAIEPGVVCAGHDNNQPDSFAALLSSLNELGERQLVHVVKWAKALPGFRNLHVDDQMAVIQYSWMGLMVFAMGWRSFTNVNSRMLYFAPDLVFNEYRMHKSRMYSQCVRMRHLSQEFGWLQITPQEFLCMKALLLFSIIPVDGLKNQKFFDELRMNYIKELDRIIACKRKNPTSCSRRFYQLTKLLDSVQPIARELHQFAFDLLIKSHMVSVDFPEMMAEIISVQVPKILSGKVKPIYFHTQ
Outline: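 LNCap cells seeded at 5.5×10^5 per well and treated with compound for 24 hours. Lysates prepared in RIPA buffer (pH 7.5, with protease inhibitors). AR protein levels assessed by Western blot with densitometric quantification.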

[2] = system: VCaP cells; test: Cytotoxicity assessment (Cell-titer-glo cell viability), VCaP; settings: read-out: VCaP (CC50); VCaP cells, 6 days of treatment, Cell-titer-glo, vs DMSO

## CC1(C)C(NC(=O)c2ccc(N3CCN(C=C4CCN(C(=O)C5CCN(c6ccc7nnn(C8CCC(=O)NC8=O)c(=O)c7c6)CC5)CC4)CC3)cc2)C(C)(C)C1Oc1ccc(C#N)c(Cl)c1 (stereo not drawn) [Example 65, N-((1r,3r)-3-(3-chloro-4-cyanophenoxy)-2,2,4,4-tetramethylcyclobutyl)-4-(4-((1-(1-(3-(2,6-dioxopiperidin-3-yl)-4-oxo-3,4-dihydrobenzo[d][1,2,3]triazin-6-yl)piperidine-4-carbonyl)piperidin-4-ylidene)methyl)piperazin-1-yl)benzamide]
[1]
  Degradation (1 μM treated in LNCaP, % AR remaining): 25%
[2]
  CC50: 0.044 µM

## CC1(C)C(NC(=O)c2ccc(N3CC4CN(C(=O)COc5ccc6nnn(C7CCC(=O)NC7=O)c(=O)c6c5)CC4C3)cc2)C(C)(C)C1Oc1ccc(C#N)c(Cl)c1 (stereo not drawn) [Example 135, N-((1r,3r)-3-(3-chloro-4-cyanophenoxy)-2,2,4,4-tetramethylcyclobutyl)-4-(5-(2-((3-(2,6-dioxopiperidin-3-yl)-4-oxo-3,4-dihydrobenzo[d][1,2,3]triazin-6-yl)oxy)acetyl)hexahydropyrrolo[3,4-c]pyrrol-2(1H)-yl)benzamide]
[2]
  CC50: ~0.01 µM

## CC1(C)C(NC(=O)c2ccc(N3CC4CN(CC5CCN(C(=O)CNc6ccc7nnn(C8CCC(=O)NC8=O)c(=O)c7c6)CC5)CC4C3)cc2)C(C)(C)C1Oc1ccc(C#N)c(Cl)c1 (stereo not drawn) [Example 138, N-((1r,3r)-3-(3-chloro-4-cyanophenoxy)-2,2,4,4-tetramethylcyclobutyl)-4-(5-((1-((3-(2,6-dioxopiperidin-3-yl)-4-oxo-3,4-dihydrobenzo[d][1,2,3]triazin-6-yl)glycyl)piperidin-4-yl)methyl)hexahydropyrrolo[3,4-c]pyrrol-2(1H)-yl)benzamide]
[2]
  CC50: 0.0637 µM

## CC1(C)C(NC(=O)c2ccc(C#CC3CCN(C(=O)C4CCN(c5ccc6nnn(C7CCC(=O)NC7=O)c(=O)c6c5)CC4)CC3)cc2)C(C)(C)C1Oc1ccc(C#N)c(Cl)c1 (stereo not drawn) [Example 141, N-((1r,3r)-3-(3-chloro-4-cyanophenoxy)-2,2,4,4-tetramethylcyclobutyl)-4-((1-(1-(3-(2,6-dioxopiperidin-3-yl)-4-oxo-3,4-dihydrobenzo[d][1,2,3]triazin-6-yl)piperidine-4-carbonyl)piperidin-4-yl)ethynyl)benzamide]
[2]
  CC50: 0.0115 µM

## CC1(C)C(NC(=O)c2ccc(-n3cc(CNC(=O)C4CCN(c5ccc6nnn(C7CCC(=O)NC7=O)c(=O)c6c5)CC4)nn3)cc2)C(C)(C)C1Oc1ccc(C#N)c(Cl)c1 (stereo not drawn) [Example 150, N-((1-(4-(((1r,3r)-3-(3-chloro-4-cyanophenoxy)-2,2,4,4-tetramethylcyclobutyl)carbamoyl)phenyl)-1H-1,2,3-triazol-4-yl)methyl)-1-(3-(2,6-dioxopiperidin-3-yl)-4-oxo-3,4-dihydrobenzo[d][1,2,3]triazin-6-yl)piperidine-4-carboxamide]
[2]
  CC50: 0.0244 µM

## CC1(C)C(NC(=O)c2ccc(C#CCC3CCN(C4CCN(c5ccc6nnn(C7CCC(=O)NC7=O)c(=O)c6c5)CC4)CC3)cc2)C(C)(C)C1Oc1ccc(C#N)c(Cl)c1 (stereo not drawn) [Example 89, N-((1r,3r)-3-(3-chloro-4-cyanophenoxy)-2,2,4,4-tetramethylcyclobutyl)-4-(3-(1 ? (3-(2,6-dioxopiperidin-3-yl)-4-oxo-3,4-dihydrobenzo[d][1,2,3]triazin-6-yl)-[1,4 ? bipiperdin]-4-yl)prop-1-yn-1-yl)benzamide]
[2]
  CC50: 0.112 µM

## CC1(C)C(NC(=O)c2ccc(-c3cnn(C4CCN(CC5CCN(C(=O)COc6ccc7nnn(C8CCC(=O)NC8=O)c(=O)c7c6)CC5)CC4)c3)cc2)C(C)(C)C1Oc1ccc(C#N)c(Cl)c1 (stereo not drawn) [Example 113, N-((1r,3r)-3-(3-chloro-4-cyanophenoxy)-2,2,4,4-tetramethylcyclobutyl)-4-(1-(1-((1-(2-((3-(2,6-dioxopiperidin-3-yl)-4-oxo-3,4-dihydrobenzo[d][1,2,3]triazin-6-yl)oxy)acetyl)piperidin-4-yl)methyl)piperidin-4-yl)-1H-pyrazol-4-yl)benzamide]
[2]
  CC50: 0.03 µM

## CC1(C)C(NC(=O)c2ccc(N3CC4CN(CC5CCN(C(=O)COc6ccc7nnn(C8CCC(=O)NC8=O)c(=O)c7c6)CC5)CC4C3)cc2)C(C)(C)C1Oc1ccc(C#N)c(Cl)c1 (stereo not drawn) [Example 137, N-((1r,3r)-3-(3-chloro-4-cyanophenoxy)-2,2,4,4-tetramethylcyclobutyl)-4-(5-((1-(2-((3-(2,6-dioxopiperidin-3-yl)-4-oxo-3,4-dihydrobenzo[d][1,2,3]triazin-6-yl)oxy)acetyl)piperidin-4-yl)methyl)hexahydropyrrolo[3,4-c]pyrrol-2(1H)-yl)benzamide]
[2]
  CC50: 0.094 µM

## CC1(C)C(NC(=O)c2ccc(C#CCC3CCN(CC4CCN(c5ccc6nnn(C7CCC(=O)NC7=O)c(=O)c6c5)CC4)CC3)nc2)C(C)(C)C1Oc1ccc(C#N)c(Cl)c1 (stereo not drawn) [Example 129, N-((1r,3r)-3-(3-chloro-4-cyanophenoxy)-2,2,4,4-tetramethylcyclobutyl)-6-(3-(1-((1-(3-(2,6-dioxopiperidin-3-yl)-4-oxo-3,4-dihydrobenzo[d][1,2,3]triazin-6-yl)piperidin-4-yl)methyl)piperidin-4-yl)prop-1-yn-1-yl)nicotinamide]
[2]
  CC50: 0.0194 µM

## CC1(C)C(NC(=O)c2ccc(C#CCC3CCN(CC4CCN(C(=O)C5CN(c6ccc7nnn(C8CCC(=O)NC8=O)c(=O)c7c6)C5)CC4)CC3)nc2)C(C)(C)C1Oc1ccc(C#N)c(Cl)c1 (stereo not drawn) [Example 127, N-((1r,3r)-3-(3-chloro-4-cyanophenoxy)-2,2,4,4-tetramethylcyclobutyl)-6-(3-(1-((1-(1-(3-(2,6-dioxopiperidin-3-yl)-4-oxo-3,4-dihydrobenzo[d][1,2,3]triazin-6-yl)azetidine-3-carbonyl)piperidin-4-yl)methyl)piperidin-4-yl)prop-1-yn-1-yl)nicotinamide]
[2]
  CC50: 0.027 µM

## CC1(C)[C@H](NC(=O)c2ccc(N3CCN(Cc4cn(-c5ccc6nnn(C7CCC(=O)NC7=O)c(=O)c6c5)nn4)CC3)cc2)C(C)(C)[C@H]1Oc1ccc(C#N)c(Cl)c1 (stereo partly drawn) [Example 91, N-((1r,3r)-3-(3-chloro-4-cyanophenoxy)-2,2,4,4-tetramethylcyclobutyl)-4-(4-((1-(3-(2,6-dioxopiperidin-3-yl)-4-oxo-3,4-dihydrobenzo[d][1,2,3]triazin-6-yl)-1H-1,2,3-triazol-4-yl)methyl)piperazin-1-yl)benzamide]
[2]
  CC50: 0.262 µM

## CC1(C)[C@H](NC(=O)c2cnc(N3CCN(CC4CCN(C(=O)C5CCN(c6ccc7nnn(C8CCC(=O)NC8=O)c(=O)c7c6)CC5)CC4)CC3)nc2)C(C)(C)[C@H]1Oc1ccc(C#N)c(Cl)c1 (stereo partly drawn) [Example 145, N-((1r,3r)-3-(3-chloro-4-cyanophenoxy)-2,2,4,4-tetramethylcyclobutyl)-2-(4-((1-(1-(3-(2,6-dioxopiperidin-3-yl)-4-oxo-3,4-dihydrobenzo[d][1,2,3]triazin-6-yl)piperidine-4-carbonyl)piperidin-4-yl)methyl)piperazin-1-yl)pyrimidine-5-carboxamide]
[2]
  CC50: ~0.01 µM

## CC1(C)C(NC(=O)c2ccc(N3CC4CN(CC5CCN(C(=O)C6CCN(c7ccc8nnn(C9CCC(=O)NC9=O)c(=O)c8c7)CC6)CC5)CC4C3)cc2)C(C)(C)C1Oc1ccc(C#N)c(Cl)c1 (stereo not drawn) [Example 139, N-((1r,3r)-3-(3-chloro-4-cyanophenoxy)-2,2,4,4-tetramethylcyclobutyl)-4-(5-((1-(1-(3-(2,6-dioxopiperidin-3-yl)-4-oxo-3,4-dihydrobenzo[d][1,2,3]triazin-6-yl)piperidine-4-carbonyl)piperidin-4-yl)methyl)hexahydropyrrolo[3,4-c]pyrrol-2(1H)-yl)benzamide]
[2]
  CC50: 0.0695 µM

## CC1(C)C(NC(=O)c2ccc(C#CC3CCN(c4ccc5nnn(C6CCC(=O)NC6=O)c(=O)c5c4)CC3)cc2)C(C)(C)C1Oc1ccc(C#N)c(Cl)c1 (stereo not drawn) [Example 142, N-((1r,3r)-3-(3-chloro-4-cyanophenoxy)-2,2,4,4-tetramethylcyclobutyl)-4-((1-(3-(2,6-dioxopiperidin-3-yl)-4-oxo-3,4-dihydrobenzo[d][1,2,3]triazin-6-yl)piperidin-4-yl)ethynyl)benzamide]
[2]
  CC50: 0.0071 µM
